From patent US20240246968A1, “SMALL MOLECULE INHIBITORS OF KRAS G12C MUTANT” (Merck Sharp & Dohme LLC, priority 2021, published 2024)
pIC50: −log10 of the molar value.

Tests used:
[1] = target: Gppcp-bound recombinant K-Ras4B G12C mutant protein (amino acids 1-169, C51S/C80L/C118S) (Homo sapiens, UniProt P01116, C118S/C51S/C80L/G12C); assay: KRASG12C binding assay (LC-MS, compound binding rate); details: test compound final concentration 0.5 μM, 25° C., 1 hour
Summary of the method: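 Gppcp-bound K-Ras4B G12C (1-169; C51S/C80L/C118S), 50 nM in TBS with 0.1 mM TCEP, 0.25 mM MgCl2, 50 μM Gppcp, exposed to compound at 0.5 μM final for 1 h at 25 °C. Quenched with formic acid and analysed by intact-protein ESI LC-MS. Binding rate is the mono-adduct signal over total KRAS signal; graded A (≥80%) to E (<20%).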

MIA PaCa-2 cells = assay: Growth inhibition activity on KRAS-G12C mutant cell line (MIA PaCa-2), CellTiter-Glo 3D; assay type: cell-based, human; details: Homo sapiens, MIA PaCa-2, 72 h, MIA PaCa-2, 3-day culture with compound
Summary of the method: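 Cells in RPMI1640 with 10% FBS were seeded in U-bottom plates and cultured 1 day at 37 °C, 5% CO2, then exposed to compound (0.2% DMSO final) for 3 more days. Viability read by CellTiter-Glo 3D luminescence; IC50 from growth inhibition relative to untreated wells.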

[2] = target: T1, interaction between recombinant K-Ras4B G12C mutant protein and cRAF RAS-binding domain (cRAF-RBD) (Homo sapiens, UniProt P01116, G12C); assay: Inhibitory activity on interaction between KRAS G12C and cRAF (Alpha technology); assay type: biochemical; details: GMPPNP-bound KRAS G12C incubated with compound at 25° C. for 1 hour, then cRAF-RBD; Alpha signal
T1 construct: made in house; host or cells: E. coli
Summary of the method: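 GMPPNP-loaded His-tagged KRAS G12C (aa 1-169, E. coli) preincubated with compound 1 h at 25° C in Tris pH 7.5, 100 mM NaCl, 1 mM MgCl2, TCEP, 0.1% Tween 20; cRAF-RBD (aa 50-132) added, 1.5 h RT, Alpha signal read. DMSO = 0%, GDP-bound KRAS = 100% inhibition; IC50 from dose titration fit.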

Compound | pIC50 (MIA PaCa-2 cells) | pIC50 [2] | binding rate [1]
Cc1nc2c(-c3cc4nc(C)n(C)c4cc3C(F)(F)F)cccn2c1C(=O)c1cc(F)c(NC(=O)/C=C/CNC(C)(C)C)c(F)c1 [Example 52, (E)-4-(tert-butylamino)-N-(4-(8-(1,2-dimethyl-6-(trifluoromethyl)-1H-benzo[d]imidazol-5-yl)-2-methylimidazo[1,2-a]pyridine-3-carbonyl)-2,6-difluorophenyl)but-2-enamide] | 6.72 | 7.12 | A (A binding rate of 80% or more is rated “A”)
CO[C@H]1C[C@H](NC/C=C/C(=O)Nc2c(F)cc(C(=O)c3ccc4c(-c5cc6nc(C)n(C)c6cc5C(F)(F)F)cccn34)cc2F)C1 [Example 54, (E)-N-(4-(8-(1,2-dimethyl-6-(trifluoromethyl)-1H-benzo[d]imidazol-5-yl)indolizine-3-carbonyl)-2,6-difluorophenyl)-4-(((1r,3r)-3-methoxycyclobutyl)amino)but-2-enamide] | 6.89 | 7.17 | A (A binding rate of 80% or more is rated “A”)
Cc1nc2cc(-c3cccn4c(C(=O)c5cc(F)c(NC(=O)/C=C/CN[C@H]6CC[C@H](O)CC6)c(F)c5)ccc34)c(C(F)(F)F)cc2n1C [Example 55] | 7.06 | 7.39 | A (A binding rate of 80% or more is rated “A”)
CO[C@H]1CC[C@H](NC/C=C/C(=O)Nc2c(F)cc(C(=O)c3ccc4c(-c5c(C)cc6c(nc(COC(=O)/C=C/CN[C@H]7CC[C@H](OC)CC7)n6C)c5Cl)cccn34)cc2F)CC1 [Example 59, (4-chloro-5-(3-(3,5-difluoro-4-((E)-4-(((1r,4r)-4-methoxycyclohexyl)amino)but-2-enamido)benzoyl)indolizin-8-yl)-1,6-dimethyl-1H-benzo[d]imidazol-2-yl)methyl (E)-4-(((1r,4r)-4-methoxycyclohexyl)amino)but-2-enoate] | 6.64 | 7.47 | A (A binding rate of 80% or more is rated “A”)
Cc1nc2cc(-c3cccn4c(C(=O)c5cc(F)c(NC(=O)/C=C/CNC6(C)CC6)c(F)c5)ccc34)c(C(F)(F)F)cc2n1C [Example 62, (E)-N-(4-(8-(1,2-dimethyl-6-(trifluoromethyl)-1H-benzo[d]imidazol-5-yl)indolizine-3-carbonyl)-2,6-difluorophenyl)-4-((1-methylcyclopropyl)amino)but-2-enamide] | 6.85 | 7.18 | A (A binding rate of 80% or more is rated “A”)
Cc1nc2cc(-c3cccn4c(C(=O)c5cc(F)c(NC(=O)/C=C/CNC6CCCCC6O)c(F)c5)ccc34)c(C(F)(F)F)cc2n1C (stereo not drawn) [Example 63, (E)-N-(4-(8-(1,2-dimethyl-6-(trifluoromethyl)-1H-benzo[d]imidazol-5-yl)indolizine-3-carbonyl)-2,6-difluorophenyl)-4-((2-hydroxycyclohexyl)amino)but-2-enamide] | 6.40 | 7.15 | A (A binding rate of 80% or more is rated “A”)
Cc1nc2cc(-c3cccn4c(C(=O)c5cc(F)c(NC(=O)/C=C/CNC6CCCCC6CO)c(F)c5)ccc34)c(C(F)(F)F)cc2n1C (stereo not drawn) [Example 65, (E)-N-(4-(8-(1,2-dimethyl-6-(trifluoromethyl)-1H-benzo[d]imidazol-5-yl)indolizine-3-carbonyl)-2,6-difluorophenyl)-4-((2-(hydroxymethyl)cyclohexyl)amino)but-2-enamide] | 6.72 | 7.12 | A (A binding rate of 80% or more is rated “A”)
Cc1nc2cc(-c3cccn4c(C(=O)c5cc(F)c(NC(=O)/C=C/CNC6CCOC(C)(C)C6)c(F)c5)ccc34)c(C(F)(F)F)cc2n1C (stereo not drawn) [Example 66] | 7.01 | 7.15 | A (A binding rate of 80% or more is rated “A”)
Cc1nc2cc(-c3cccn4c(C(=O)c5cc(F)c(NC(=O)/C=C/CNC6(CO)CCCCC6)c(F)c5)ccc34)c(C(F)(F)F)cc2n1C [Example 69, (E)-N-(4-(8-(1,2-dimethyl-6-(trifluoromethyl)-1H-benzo[d]imidazol-5-yl)indolizine-3-carbonyl)-2,6-difluorophenyl)-4-((1-(hydroxymethyl)cyclohexyl)amino)but-2-enamide] | 6.47 | 7.06 | A (A binding rate of 80% or more is rated “A”)
Cc1nc2cc(-c3cccn4c(C(=O)c5cc(F)c(NC(=O)/C=C/CNC6(CO)CCOCC6)c(F)c5)ccc34)c(C(F)(F)F)cc2n1C [Example 70, (E)-N-(4-(8-(1,2-dimethyl-6-(trifluoromethyl)-1H-benzo[d]imidazol-5-yl)indolizine-3-carbonyl)-2,6-difluorophenyl)-4-((4-(hydroxymethyl)tetrahydro-2H-pyran-4-yl)amino)but-2-enamide] | 6.68 | 7.15 | A (A binding rate of 80% or more is rated “A”)
Cc1nc2cc(-c3cccn4c(C(=O)c5cc(F)c(NC(=O)/C=C/CNC6CCN(C)C(=O)C6)c(F)c5)ccc34)c(C(F)(F)F)cc2n1C (stereo not drawn) [Example 72, (E)-N-(4-(8-(1,2-dimethyl-6-(trifluoromethyl)-1H-benzo[d]imidazol-5-yl)indolizine-3-carbonyl)-2,6-difluorophenyl)-4-((1-methyl-2-oxopiperidin-4-yl)amino)but-2-enamide] | 7.00 | 7.05 | A (A binding rate of 80% or more is rated “A”)
Cc1cc2c(nc(CC(N)=O)n2C)c(Cl)c1-c1cccn2c(C(=O)c3cc(F)c(NC(=O)/C=C/CNC(C)(C)C)c(F)c3)ccc12 [Example 73, (E)-N-(4-(8-(2-(2-amino-2-oxoethyl)-4-chloro-1,6-dimethyl-1H-benzo[d]imidazol-5-yl)indolizine-3-carbonyl)-2,6-difluorophenyl)-4-(tert-butylamino)but-2-enamide] | 6.52 | 7.14 | A (A binding rate of 80% or more is rated “A”)

Compounds with a higher pIC50 (MIA PaCa-2 cells), results first:

pIC50 (MIA PaCa-2 cells) | pIC50 [2] | Compound | binding rate [1]
7.66 | 7.40 | COc1c(-c2cccn3c(C(=O)c4cc(F)c(NC(=O)/C=C/CNC(C)(C)C)c(F)c4)ccc23)c(C(F)(F)F)cc2c1nc(C)n2C [Example 53, (E)-4-(tert-butylamino)-N-(2,6-difluoro-4-(8-(4-methoxy-1,2-dimethyl-6-(trifluoromethyl)-1H-benzo[d]imidazol-5-yl)indolizine-3-carbonyl)phenyl)but-2-enamide] | A (A binding rate of 80% or more is rated “A”)
7.16 | 7.46 | CO[C@H]1CC[C@H](NC/C=C/C(=O)Nc2c(F)cc(C(=O)c3ccc4c(-c5c(C)cc6c(nc(CO)n6C)c5Cl)cccn34)cc2F)CC1 [Example 58] | A (A binding rate of 80% or more is rated “A”)
7.60 | 7.34 | CO[C@H]1CC[C@H](NC/C=C/C(=O)Nc2c(F)cc(C(=O)c3ccc4c(-c5c(C(F)F)cc6c(nc(C)n6C)c5Cl)cccn34)cc2F)CC1 [Example 64, (E)-N-(4-(8-(4-chloro-6-(difluoromethyl)-1,2-dimethyl-1H-benzo[d]imidazol-5-yl)indolizine-3-carbonyl)-2,6-difluorophenyl)-4-(((1r,4r)-4-methoxycyclohexyl)amino)but-2-enamide] | A (A binding rate of 80% or more is rated “A”)
7.29 | 7.42 | CO[C@H]1CC[C@H](NC/C=C/C(=O)Nc2c(F)cc(C(=O)c3ccc4c(-c5c(C(F)(F)F)cc6c(nc(CO)n6C)c5Cl)cccn34)cc2F)CC1 [Example 67, (E)-N-(4-(8-(4-chloro-2-(hydroxymethyl)-1-methyl-6-(trifluoromethyl)-1H-benzo[d]imidazol-5-yl)indolizine-3-carbonyl)-2,6-difluorophenyl)-4-(((1r,4r)-4-methoxycyclohexyl)amino)but-2-enamide] | A (A binding rate of 80% or more is rated “A”)
7.17 | 7.11 | CO[C@H]1CC[C@H](NC/C=C/C(=O)Nc2c(F)cc(C(=O)c3ccc4c(-c5c(C(F)(F)F)cc6c(nc(CF)n6C)c5Cl)cccn34)cc2F)CC1 [Example 68] | A (A binding rate of 80% or more is rated “A”)
7.19 | 7.19 | Cc1cc2c(nc(CC#N)n2C)c(Cl)c1-c1cccn2c(C(=O)c3cc(F)c(NC(=O)/C=C/CNC(C)(C)C)c(F)c3)ccc12 [Example 74, (E)-4-(tert-butylamino)-N-(4-(8-(4-chloro-2-(cyanomethyl)-1,6-dimethyl-1H-benzo[d]imidazol-5-yl)indolizine-3-carbonyl)-2,6-difluorophenyl)but-2-enamide] | A (A binding rate of 80% or more is rated “A”)
